{
  "source": "patent US8962036B2",
  "about": "“Disintegrable formulations of lanthanum carbonate” (Mylan Pharmaceuticals Inc., priority 2009, dated 2015)",
  "key": {"[1]": {"experiment": "Phosphate Binding Assay (excess phosphate, pH 3.0, 37° C., ion chromatography)", "conditions": "2.5 mg La2(CO3)3/mL phosphate solution, 60 minutes; for Binding Capacity, Ground Tablet: whole tablet coarsely ground before analysis; for Binding Capacity, Whole Tablet: whole tablet without further modification", "source_text": "Table II describes the phosphate binding ability of the prepared Examples in either whole or ground tablet form. The ground tablets simulate a chewable tablet formulation after chewing has occurred. Phosphate binding ability is a term used to predict the amount of phosphate that can be bound by a sequestrant under conditions which employ a large excess of phosphate, such as those found in the stomach. Mazzeo, J. R.; et. al. Journal of Pharmaceutical and Biomedical Analysis 1999, vol. 19, pps. 911-915. This assay, which utilizes a large excess of phosphate, is therefore a better functional model of biological conditions than the assay described in U.S. Pat. No. 5,968,976 which utilizes only two molar equivalents of phosphate ion per mole of lanthanum carbonate.\nThe uncoated, compressed tablets obtained from Examples 1-17 were assessed for phosphate binding ability. Whole tablets, prepared as described above, as well as coarsely ground tablets were both examined.\ni. Preparation of stock phosphate solution:\n21.4 g N,N-bis(hydroxyethyl)-2-aminoethanesulfonic acid, 4.7 g NaCl, and 2.7 g KH2PO4 (ultra high purity) were added to a 1000 mL volumetric flask and dissolved in 950 mL DI H2O. The pH was then adjusted to 3.0 (±0.05) with HCl, and the solution was diluted to volume with DI H2O and mixed.\nThe lanthanum carbonate complex was added to the stock phosphate solution so that the final concentration was 2.5 mg La2(CO3)3/mL phosphate solution. The mixture was heated at 37° C. for 60 minutes with constant swirling. It was then filtered through a 0.2 μm nylon filter.\nThe sample was then diluted to allow injection into the ion chromatograph. Here, a dilution factor of 100 was used: a 1.0 mL aliquot was removed and diluted volumetrically to 100 mL with DI water.\niii. Phosphate Measurement\nThe amount of unbound phosphate was determined by ion chromatography on a Dionex ICS-1500 ion chromatograph equipped with a conductivity cell (35° C.) and a Dionex MRS 300 4 mm auto suppressor. Material was eluted through a Dionex AG11-HC guard column (4×50 mm) and a Dionex AS11-HC column (4×250 mm) at 1.0 mL/min using 25 mM NaOH in DI H2O as the mobile phase. The sample response was then recorded by a computerized chromatography data system.\niv. Construction of Phosphate Calibration Curve\nThe linearity of the response was verified as follows. A series of standards over a wide range of free phosphate concentration (approximately 0.04, 0.06, 0.10, 0.15, 0.20, and 0.25 mM) were prepared and their ion chromatographic responses were determined. A plot of free phosphate concentration (mM) vs. response was then constructed. The slope and y-intercept of the resulting linear regression plot were then determined.\nThe phosphate binding capacity was calculated from the following equations."}, "[2]": {"experiment": "Disintegration of uncoated, compressed tablets in deionized water (USP <701>)", "assay_type": "physicochemical", "conditions": "whole, intact tablet in deionized water; single tablet per example", "description": "The uncoated, compressed tablets were assessed for disintegration. The disintegration time was measured using the procedure and apparatus as described by physical test <701>, Disintegration, from The United States Pharmacopeia, Volume 29. The disintegration of a single tablet from each example was measured."}},
  "data": [
    {"smiles": "O=C([O-])[O-].O=C([O-])[O-].O=C([O-])[O-].[La+3].[La+3]", "note": "[Example 14, La2(CO3)3•5H20]", "values": [
      {"measurement": "Binding Capacity, Ground Tablet", "setting": "[1]", "result": "3.0 mmol PO4-2/g La2(CO3)3"},
      {"measurement": "Binding Capacity, Whole Tablet", "setting": "[1]", "result": "0.7 mmol PO4-2/g La2(CO3)3"},
      {"measurement": "Disintegration Time", "setting": "[2]", "result": 5, "unit": "h"}
    ]},
    {"smiles": "O.O.O.O.O.O.O.O.O=C([O-])[O-].O=C([O-])[O-].O=C([O-])[O-].[La+3].[La+3]", "note": "[Example 15, La2(CO3)3•8H20]", "values": [
      {"measurement": "Binding Capacity, Ground Tablet", "setting": "[1]", "result": "3.0 mmol PO4-2/g La2(CO3)3"},
      {"measurement": "Binding Capacity, Whole Tablet", "setting": "[1]", "result": "0.6 mmol PO4-2/g La2(CO3)3"},
      {"measurement": "Disintegration Time", "setting": "[2]", "result": ">7", "unit": "h"}
    ]},
    {"smiles": "O.O.O.O.O.O.O.O.O.O.O.O.O.O.O=C([O-])[O-].O=C([O-])[O-].O=C([O-])[O-].[La+3].[La+3]", "note": "[Example 16, La2(CO3)3•14H20]", "values": [
      {"measurement": "Binding Capacity, Ground Tablet", "setting": "[1]", "result": "3.6 mmol PO4-2/g La2(CO3)3"},
      {"measurement": "Binding Capacity, Whole Tablet", "setting": "[1]", "result": "0.8 mmol PO4-2/g La2(CO3)3"},
      {"measurement": "Disintegration Time", "setting": "[2]", "result": ">7", "unit": "h"}
    ]}
  ]
}
